Measured values as given in US9169254B2, “Spiroimidazolone derivative” (Chugai Seiyaku Kabushiki Kaisha, priority 2009, dated 2015).

The molecules below were run against T1, human PTH1 receptor (Homo sapiens, UniProt Q03431) (assay: In vitro cAMP signal activity in HKRK-B7 cells (LLC-PK1 cells overexpressing the human PTH1 receptor)). Conditions: HKRK-B7 cells; compound at 1×10^−3 M; cAMP produced as percentage of that produced by hPTH(1-34) at 100 nM.
T1 sequence (Q03431 27-593): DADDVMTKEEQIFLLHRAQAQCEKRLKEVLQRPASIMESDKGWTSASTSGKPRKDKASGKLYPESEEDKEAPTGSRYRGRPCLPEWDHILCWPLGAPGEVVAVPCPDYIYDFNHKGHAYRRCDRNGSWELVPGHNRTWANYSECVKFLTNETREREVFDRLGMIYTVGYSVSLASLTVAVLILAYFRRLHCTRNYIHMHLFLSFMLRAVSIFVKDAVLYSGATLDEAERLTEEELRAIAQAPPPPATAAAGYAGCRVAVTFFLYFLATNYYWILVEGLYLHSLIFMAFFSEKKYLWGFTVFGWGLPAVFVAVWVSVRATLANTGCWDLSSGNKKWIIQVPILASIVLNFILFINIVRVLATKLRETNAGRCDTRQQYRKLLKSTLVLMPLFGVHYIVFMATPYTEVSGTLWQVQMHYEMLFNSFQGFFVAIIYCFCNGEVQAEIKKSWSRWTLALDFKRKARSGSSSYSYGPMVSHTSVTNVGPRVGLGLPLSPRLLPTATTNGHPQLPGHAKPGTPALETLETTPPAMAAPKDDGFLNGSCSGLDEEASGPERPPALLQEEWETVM
Assay type: cell-based

Compound	cAMP production activity (%)
Cc1cc(C(=O)N(C)C)ccc1CCS(=O)(=O)N1CCC2(CC1)N=C(c1cc(Cl)cc(C(F)(F)F)c1)NC2=O [Compound 127, 4-{2-[2-(3-chloro-5-trifluoromethyl-phenyl)-4-oxo-1,3,8-triaza-spiro[4.5]dec-1-ene-8-sulfonyl]-ethyl}-3,N,N-trimethyl-benzamide]	72
Cc1cc(C(=O)N(C)C)ccc1CCS(=O)(=O)N1CCC2(CC1)N=C(c1ccc(Cl)cc1C)NC2=O [Compound 128, 4-{2-[2-(4-chloro-2-methyl-phenyl)-4-oxo-1,3,8-triaza-spiro[4.5]dec-1-ene-8-sulfonyl]-ethyl}-3,N,N-trimethyl-benzamide]	57
Cc1cc(C(=O)N(C)C)ccc1CCS(=O)(=O)N1CCC2(CC1)N=C(c1ccc(Cl)cc1F)NC2=O [Compound 129, 4-{2-[2-(4-chloro-2-fluoro-phenyl)-4-oxo-1,3,8-triaza-spiro[4.5]dec-1-ene-8-sulfonyl]-ethyl}-3,N,N-trimethyl-benzamide]	3.7
Cc1cc(C(=O)N(C)C)ccc1CCS(=O)(=O)N1CCC2(CC1)N=C(c1cccc(COC(C)C)c1)NC2=O [Compound 130, 4-{2-[2-(3-isopropoxymethyl-phenyl)-4-oxo-1,3,8-triaza-spiro[4.5]dec-1-ene-8-sulfonyl]-ethyl}-3,N,N-trimethyl-benzamide]	65
Cc1cc(C(=O)N(C)C)ccc1CCS(=O)(=O)N1CCC2(CC1)N=C(COc1ccc(Cl)cc1Cl)NC2=O [Compound 131, 4-{2-[2-(2,4-dichloro-phenoxymethyl)-4-oxo-1,3,8-triaza-spiro[4.5]dec-1-ene-8-sulfonyl]-ethyl}-3,N,N-trimethyl-benzamide]	72
Cc1cc(C(=O)N(C)C)ccc1CCS(=O)(=O)N1CCC2(CC1)N=C(c1cccc(Cl)c1C)NC2=O [Compound 133, 4-{2-[2-(3-chloro-2-methyl-phenyl)-4-oxo-1,3,8-triaza-spiro[4.5]dec-1-ene-8-sulfonyl]-ethyl}-3,N,N-trimethyl-benzamide]	82
Cc1cc(C(=O)N(C)C)ccc1CCS(=O)(=O)N1CCC2(CC1)N=C(Cc1ccc(Cl)cc1Cl)NC2=O [Compound 134, 4-{2-[2-(2,4-dichloro-benzyl)-4-oxo-1,3,8-triaza-spiro[4.5]dec-1-ene-8-sulfonyl]-ethyl}-3,N,N-trimethyl-benzamide]	77
Cc1cc(C(=O)N(C)C)ccc1CCS(=O)(=O)N1CCC2(CC1)N=C(Cc1cccc(C(F)(F)F)c1)NC2=O [Compound 135, 3,N,N-trimethyl-4-{2-[4-oxo-2-(3-trifluoromethyl-benzyl)-1,3,8-triaza-spiro[4.5]dec-1-ene-8-sulfonyl]-ethyl}-benzamide]	67
Cc1cc(C(=O)N(C)C)ccc1CCS(=O)(=O)N1CCC2(CC1)N=C(C1(C(F)(F)F)CC1)NC2=O [Compound 136, 3,N,N-trimethyl-4-{2-[4-oxo-2-(1-trifluoromethyl-cyclopropyl)-1,3,8-triaza-spiro[4.5]dec-1-ene-8-sulfonyl]-ethyl}-benzamide]	72
Cc1cc(C(=O)N(C)C)ccc1CCS(=O)(=O)N1CCC2(CC1)N=C(C1(C(F)(F)F)CCC1)NC2=O [Compound 137, 3,N,N-trimethyl-4-{2-[4-oxo-2-(1-trifluoromethyl-cyclobutyl)-1,3,8-triaza-spiro[4.5]dec-1-ene-8-sulfonyl]-ethyl}-benzamide]	50
Cc1cc(C(=O)N(C)C)ccc1CCS(=O)(=O)N1CCC2(CC1)N=C(C1(C(F)(F)F)CCCC1)NC2=O [Compound 138, 3,N,N-trimethyl-4-{2-[4-oxo-2-(1-trifluoromethyl-cyclopentyl)-1,3,8-triaza-spiro[4.5]dec-1-ene-8-sulfonyl]-ethyl}-benzamide]	49
Cc1cc(C(=O)N(C)C)ccc1CCS(=O)(=O)N1CCC2(CC1)N=C(c1ccc(C(F)(F)F)cc1F)NC2=O [Compound 139, 4-{2-[2-(2-fluoro-4-trifluoromethyl-phenyl)-4-oxo-1,3,8-triaza-spiro[4.5]dec-1-ene-8-sulfonyl]-ethyl}-3,N,N-trimethyl-benzamide]	64

Results, then the molecule that gave them:

cAMP production activity (%)	Compound
77	Cc1cc(C(=O)N(C)C)ccc1CCS(=O)(=O)N1CCC2(CC1)N=C(c1cccc(OC(F)(F)C(F)F)c1)NC2=O [Compound 140, 3,N,N-trimethyl-4-(2-{4-oxo-2-[3-(1,1,2,2-tetrafluoro-ethoxy)-phenyl]-1,3,8-triaza-spiro[4.5]dec-1-ene-8-sulfonyl}-ethyl)-benzamide]
32	C/C=C/C1=NC2(CCN(S(=O)(=O)CCc3ccc(C(=O)N(C)C)cc3C)CC2)C(=O)N1 [Compound 141, 3,N,N-trimethyl-4-{2-[4-oxo-2-((E)-propenyl)-1,3,8-triaza-spiro[4.5]dec-1-ene-8-sulfonyl]-ethyl}-benzamide]
63	Cc1cc(C(=O)N(C)C)ccc1CCS(=O)(=O)N1CCC2(CC1)N=C(/C=C/c1ccccc1)NC2=O [Compound 142, 3,N,N-trimethyl-4-{2-[4-oxo-2-((E)-styryl)-1,3,8-triaza-spiro[4.5]dec-1-ene-8-sulfonyl]-ethyl}-benzamide]
4.5	Cc1cc(C(=O)N(C)C)ccc1CCS(=O)(=O)N1CCC2(CC1)N=C(c1ccc3ncsc3c1)NC2=O [Compound 143, 4-[2-(2-benzothiazol-6-yl-4-oxo-1,3,8-triaza-spiro[4.5]dec-1-ene-8-sulfonyl)-ethyl]-3,N,N-trimethyl-benzamide]
59	COc1ccc(C2=NC3(CCN(S(=O)(=O)CCc4ccc(C(=O)N(C)C)cc4C)CC3)C(=O)N2)cc1C(F)(F)F [Compound 144, 4-{2-[2-(4-methoxy-3-trifluoromethyl-phenyl)-4-oxo-1,3,8-triaza-spiro[4.5]dec-1-ene-8-sulfonyl]-ethyl}-3,N,N-trimethyl-benzamide]
129	CC(=O)Nc1ccc(CCS(=O)(=O)N2CCC3(CC2)N=C(c2cccc(C)c2)NC3=O)c(C)c1 [Compound 145, N-{3-Methyl-4-[2-(4-oxo-2-m-tolyl-1,3,8-triaza-spiro[4.5]dec-1-ene-8-sulfonyl)-ethyl]-phenyl}-acetamide]
122	CC(=O)Nc1ccc(CCS(=O)(=O)N2CCC3(CC2)N=C(c2cccc(C)c2C)NC3=O)c(C)c1 [Compound 146, N-(4-{2-[2-(2,3-dimethyl-phenyl)-4-oxo-1,3,8-triaza-spiro[4.5]dec-1-ene-8-sulfonyl]-ethyl}-3-methyl-phenyl)-acetamide]
105	CC(=O)Nc1ccc(CCS(=O)(=O)N2CCC3(CC2)N=C(c2cccc(Cl)c2Cl)NC3=O)c(C)c1 [Compound 147, N-(4-{2-[2-(2,3-dichloro-phenyl)-4-oxo-1,3,8-triaza-spiro[4.5]dec-1-ene-8-sulfonyl]-ethyl}-3-methyl-phenyl)-acetamide]
79	CC(=O)Nc1ccc(CCS(=O)(=O)N2CCC3(CC2)N=C(C2CCC(C)CC2)NC3=O)c(C)c1 (stereo not drawn) [Compound 148, N-(3-methyl-4-{2-[2-(4-methyl-cyclohexyl)-4-oxo-1,3,8-triaza-spiro[4.5]dec-1-ene-8-sulfonyl]-ethyl}-phenyl)-acetamide]
